Reference: ChEMBL document CHEMBL1201862, “PubChem BioAssay data set” (2004)
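Test compounds were applied to cells in 96-well plates for 48 hours at 5 doses. At the GI50, growth is halved.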 The source made the active and inactive calls. Rule as the data show it: active = GI50 up to about 1.1 µM and inactive = higher.

Tests used:
Test in all cases: inhibition of tumour cell growth, NCI panel, 48 h
[1] = tested on: DMS-273
[2] = tested on: TK-10
[3] = tested on: Malme-3M
[4] = tested on: DLD-1
[5] = tested on: SF-295
[6] = tested on: SK-MEL-28
[7] = tested on: SK-MEL-5
[8] = tested on: DMS-114
[9] = tested on: NCI-H23
[10] = tested on: OVCAR-4
[11] = tested on: UACC-257
[12] = tested on: MOLT-4
[13] = tested on: 786-0
[14] = tested on: SNB-78

Measured: GI50

C=CCCCN1CCCC(C)C1=S (configuration not stated)
inactive: [1] > 100 µM | [2] > 100 µM | [3] > 100 µM | [4] > 100 µM | [5] > 100 µM | [6] > 100 µM | [7] > 100 µM | [8] > 100 µM | [9] > 100 µM | [10] > 100 µM | [11] > 100 µM | [12] > 100 µM | [13] > 100 µM

O=[N+]([O-])c1ccc2c(c1)OCCOCCOc1ccc([N+](=O)[O-])cc1OCCOCCO2
inactive: [1] > 100 µM | [2] > 100 µM | [3] > 100 µM | [5] > 100 µM | [6] > 100 µM | [7] > 100 µM | [8] > 100 µM | [9] > 100 µM | [10] > 100 µM | [14] > 100 µM | [11] > 100 µM | [12] > 100 µM | [13] > 100 µM

COc1ccc2c3c(n(Cc4ccccc4)c(=O)c2c1)-c1cc(OC)c(OC)cc1C3C (configuration not stated)
inactive: [1] 7.6 µM | [2] > 54.3 µM | [3] 15.6 µM | [4] 50.9 µM | [5] 11.6 µM | [6] 43.5 µM | [7] 12.2 µM | [8] 23 µM | [9] 6.92 µM | [10] 6.61 µM | [14] 57.7 µM | [11] 69.8 µM | [12] 8.32 µM | [13] 7.45 µM

Clc1ccc(C2=NOC3C4CCC(C4)C23)cc1 (configuration not stated)
inactive: [1] > 100 µM | [2] > 100 µM | [3] > 100 µM | [4] > 100 µM | [5] 73.1 µM | [6] > 100 µM | [7] > 100 µM | [9] > 100 µM | [10] > 100 µM | [14] > 100 µM | [11] > 100 µM | [12] 59.4 µM | [13] > 100 µM

COP1(=O)CC2C(Cl)(Cl)C2(C)C1 (configuration not stated)
inactive: [1] > 100 µM | [2] > 100 µM | [4] > 100 µM | [5] > 100 µM | [6] > 100 µM | [7] > 100 µM | [8] > 100 µM | [9] > 100 µM | [10] > 100 µM | [14] > 100 µM | [12] > 100 µM | [13] > 100 µM

O=C1C2=C(CCCC2)Nc2cccc3ncn1c23
inactive: [1] > 100 µM | [2] > 100 µM | [3] > 100 µM | [4] > 100 µM | [5] > 100 µM | [6] > 100 µM | [7] > 100 µM | [8] > 100 µM | [9] > 100 µM | [14] > 100 µM | [11] > 100 µM | [12] > 100 µM | [13] > 100 µM

Cc1c(C(Cc2ccccc2N(C)C(=O)/C=C\C(=O)O)c2c[nH]c3ccccc23)c2ccccc2n1C (configuration not stated)
inactive: [1] 17.1 µM | [2] 17.7 µM | [3] 6.14 µM | [4] 18.2 µM | [5] 14.5 µM | [7] 14.9 µM | [8] 14.2 µM | [9] 16.8 µM | [10] 22.5 µM | [14] 21.1 µM | [11] 15.7 µM | [12] 22.9 µM | [13] 16.4 µM

O=c1[nH]nc2ccccc2c1Cl
inactive: [1] 16.3 µM | [2] 18 µM | [3] 16.2 µM | [4] 10.4 µM | [5] 20.5 µM | [6] > 10 µM | [7] > 10 µM | [8] 4.89 µM | [9] 15.1 µM | [10] 11.2 µM | [14] 13.3 µM | [11] 10.2 µM | [12] 14 µM | [13] 14.6 µM

NC(=O)c1ccccc1NC(=O)C(=O)C(C(=O)c1ccc2ccccc2c1)C1OC(=O)c2ccccc21 (configuration not stated)
inactive: [1] 12.5 µM | [2] 22.6 µM | [3] 10.4 µM | [6] 7.23 µM | [7] 12 µM | [9] 9.66 µM | [10] 11.6 µM | [14] 10.5 µM | [11] 13.3 µM | [12] 3.49 µM | [13] 6.25 µM

O=c1[nH]c(-c2ccccc2)nc2cc([N+](=O)[O-])c(/C(Cl)=C/c3ccccc3)cc12
inactive: [1] 29.1 µM | [2] 27.7 µM | [3] 24.3 µM | [5] 20.7 µM | [6] 26.2 µM | [7] 16.1 µM | [8] 35.7 µM | [9] 43.3 µM | [10] 18.3 µM | [14] 35 µM | [11] 16.1 µM | [12] 50.8 µM | [13] 35 µM

COC1=CC(=C(C#N)/C(=N\c2ccccc2)SC)C=C(OC)C1=O
inactive: [1] 36.1 µM | [2] > 100 µM | [3] > 100 µM | [4] 24.5 µM | [5] 69.2 µM | [6] > 100 µM | [7] 20.7 µM | [9] 54.5 µM | [14] 67.9 µM | [11] 56.6 µM | [12] 20.8 µM | [13] 31.6 µM

CCCO/S(=N\S(=O)(=O)c1ccccc1)c1ccccc1[N+](=O)[O-] (configuration not stated)
inactive: [1] > 100 µM | [3] > 100 µM | [4] > 100 µM | [5] > 100 µM | [6] 63.8 µM | [7] > 100 µM | [8] > 100 µM | [9] > 100 µM | [10] > 100 µM | [14] > 100 µM | [11] > 100 µM | [12] > 100 µM | [13] > 100 µM

[N-]=[N+]=NC(c1cn(C2CC(O)C(CO)O2)c(=O)[nH]c1=O)C(Cl)Br (configuration not stated)
inactive: [1] > 100 µM | [2] > 100 µM | [3] > 100 µM | [4] > 100 µM | [5] > 100 µM | [6] > 100 µM | [7] > 100 µM | [8] > 100 µM | [9] > 100 µM | [14] > 100 µM | [12] > 100 µM | [13] > 100 µM

Clc1ccccc1C1=NN(c2ccccc2)C2c3ccccc3OCC12 (configuration not stated)
inactive: [1] 83.8 µM | [2] > 100 µM | [3] > 100 µM | [4] > 100 µM | [5] 79.6 µM | [6] > 100 µM | [7] 79.6 µM | [8] > 100 µM | [9] > 100 µM | [14] > 100 µM | [11] 79.3 µM | [12] 57.8 µM | [13] 74.5 µM

CC(C)C1COC(c2cccc(C3=N[C@@H](C(C)C)CO3)n2)=N1 (some centres not stated)
inactive: [1] > 100 µM | [2] > 100 µM | [3] > 100 µM | [4] > 100 µM | [5] > 100 µM | [6] > 100 µM | [7] > 100 µM | [8] > 100 µM | [9] > 100 µM | [10] > 100 µM | [14] > 100 µM | [12] > 100 µM | [13] > 100 µM
